Values quoted from earlier work in US12048769B2, “Methods for administering weight loss medications” (priority 2006, dated 2024).
Blank lines part the entries; values can stand above or below the compound they belong to.

Legend:
[1] = in vivo
[2] = in vivo; remark: listed apart in the source
[3] = tested on: patients presenting primary obesity; conditions: comparable to marketed weight loss medications

bioavailability (in vivo): approximately 72%
time to complete excretion (in vivo): several weeks
plasma protein binding (mostly albumin): highly bound
elimination half-life in liver disease (those with liver disease): prolonged
physiological half life [1]: about 24 hours
Structure (SMILES): CNCCC(Oc1ccc(C(F)(F)F)cc1)c1ccccc1 (stereo not drawn) [Fluoxetine, N-methyl-3-phenyl-3-[4-(trifluoromethyl)phenoxy]-propan-1-amine]

Structure (SMILES): Cc1cc2c(s1)Nc1ccccc1N=C2N1CCN(C)CC1 [Olanzapine, 2-methyl-4-(4-methyl-1-piperazinyl)-10H-thieno[2,3-b][1,5]benzodiazepine]
effect of food on bioavailability [2]: not affected by food
first pass metabolism [2]: extensive first pass metabolism
kinetics [2]: linear kinetics
time to steady state plasma concentrations [2]: about a week

inhibitory effect on carbonic anhydrase (carbonic anhydrase): weak inhibitory effect
Structure (SMILES): NS(=O)(=O)Cc1noc2ccccc12 [Zonisamide]
weight loss [3]: significant weight loss

elimination half-life (after long-term use, healthy adults): 16 days
Structure (SMILES): NCCC(Oc1ccc(C(F)(F)F)cc1)c1ccccc1 (stereo not drawn) [norfluoxetine]
